Assay results: the supplement of paper PMC10307832

Experiments:
Assay in all cases: relative viability (nuclei count vs DMSO), 5 days (fraction); higher = more cells survive
Omipalisib + Pemetrexed = compound: COc1ncc(-c2ccc3nccc(-c4ccnnc4)c3c2)cc1NS(=O)(=O)c1ccc(F)cc1F [Omipalisib] + Nc1nc2[nH]cc(CCc3ccc(C(=O)N[C@@H](CCC(=O)O)C(=O)O)cc3)c2c(=O)[nH]1 [Pemetrexed] (partner 0.2 µM)
Outline: (§1)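 Dosing by pin tool came one day after lung cancer cell lines were seeded in 1536-well plates, using either one drug or a fixed anchor-drug dose plus five library-drug doses (not always all listed) in √10 steps. After 5 days, nuclei were counted on 4× images. Relative viability is treated-well nuclei count divided by vehicle-well nuclei count, and values are medians of duplicate plates.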

Omipalisib + Tozasertib = compound: COc1ncc(-c2ccc3nccc(-c4ccnnc4)c3c2)cc1NS(=O)(=O)c1ccc(F)cc1F [Omipalisib] + Cc1cc(Nc2cc(N3CCN(C)CC3)nc(Sc3ccc(NC(=O)C4CC4)cc3)n2)n[nH]1 [Tozasertib] (partner 0.1 µM)
Outline: as §1

Omipalisib + Crizotinib = compound: COc1ncc(-c2ccc3nccc(-c4ccnnc4)c3c2)cc1NS(=O)(=O)c1ccc(F)cc1F [Omipalisib] + C[C@@H](Oc1cc(-c2cnn(C3CCNCC3)c2)cnc1N)c1c(Cl)ccc(F)c1Cl [Crizotinib] (partner 1 µM)
Outline: as §1

Omipalisib + Olaparib = compound: COc1ncc(-c2ccc3nccc(-c4ccnnc4)c3c2)cc1NS(=O)(=O)c1ccc(F)cc1F [Omipalisib] + O=C(c1cc(Cc2n[nH]c(=O)c3ccccc23)ccc1F)N1CCN(C(=O)C2CC2)CC1 [Olaparib] (partner 8 µM)
Outline: as §1

Omipalisib + Navitoclax = compound: COc1ncc(-c2ccc3nccc(-c4ccnnc4)c3c2)cc1NS(=O)(=O)c1ccc(F)cc1F [Omipalisib] + CC1(C)CCC(c2ccc(Cl)cc2)=C(CN2CCN(c3ccc(C(=O)NS(=O)(=O)c4ccc(N[C@H](CCN5CCOCC5)CSc5ccccc5)c(S(=O)(=O)C(F)(F)F)c4)cc3)CC2)C1 [Navitoclax] (partner 0.5 µM)
Outline: as §1

Omipalisib + AZD7762 = compound: COc1ncc(-c2ccc3nccc(-c4ccnnc4)c3c2)cc1NS(=O)(=O)c1ccc(F)cc1F [Omipalisib] + NC(=O)Nc1cc(-c2cccc(F)c2)sc1C(=O)N[C@H]1CCCNC1 [AZD7762] (partner 0.2 µM)
Outline: as §1

Cell Line	relative viability (Omipalisib + Pemetrexed; first compound 0.0003 µM)	relative viability (Omipalisib + Pemetrexed; first compound 0.003 µM)	relative viability (Omipalisib + Pemetrexed; first compound 0.03 µM)	relative viability (Omipalisib + Tozasertib; first compound 0.0003 µM)	relative viability (Omipalisib + Tozasertib; first compound 0.003 µM)	relative viability (Omipalisib + Tozasertib; first compound 0.03 µM)	relative viability (Omipalisib + Crizotinib; first compound 0.0003 µM)	relative viability (Omipalisib + Crizotinib; first compound 0.003 µM)	relative viability (Omipalisib + Crizotinib; first compound 0.03 µM)	relative viability (Omipalisib + Olaparib; first compound 0.0003 µM)	relative viability (Omipalisib + Olaparib; first compound 0.003 µM)	relative viability (Omipalisib + Olaparib; first compound 0.03 µM)	relative viability (Omipalisib + Navitoclax; first compound 0.0003 µM)	relative viability (Omipalisib + Navitoclax; first compound 0.003 µM)	relative viability (Omipalisib + Navitoclax; first compound 0.03 µM)	relative viability (Omipalisib + AZD7762; first compound 0.0003 µM)	relative viability (Omipalisib + AZD7762; first compound 0.003 µM)	relative viability (Omipalisib + AZD7762; first compound 0.03 µM)
SW 1573	0.568	0.549	0.366	0.171	0.146	0.109	0.812	0.628	0.379	0.319	0.332	0.203	0.921	0.745	0.475	–	–	–
NCI-H596	0.497	0.586	0.407	0.824	0.598	0.287	0.93	0.561	0.361	0.639	0.604	0.402	0.849	0.519	0.174	0.966	0.546	0.479
NCI-H2342	0.69	0.568	0.451	0.425	0.442	0.354	–	–	–	0.411	0.376	0.239	–	–	–	0.47	0.434	0.383
NCI-H358	0.182	0.164	0.131	0.126	0.108	0.0977	0.502	0.6	0.303	0.544	0.38	0.324	–	–	–	0.43	0.366	0.244
ABC-1	–	–	–	0.161	0.189	0.213	0.811	0.899	0.49	0.911	0.764	0.619	–	–	–	0.888	0.929	0.674
EMC-BAC-2	0.481	0.463	0.418	0.266	0.27	0.261	0.744	0.665	0.395	0.391	0.407	0.252	1.12	0.92	0.566	0.989	0.719	0.515
NCI-H1666	0.879	0.892	0.631	0.605	0.524	0.552	0.974	0.743	0.494	0.687	0.749	0.686	0.808	0.597	0.398	0.852	0.81	0.552
NCI-H661	0.925	0.9	0.761	0.366	0.388	0.37	0.969	0.94	0.703	0.744	0.659	0.604	–	–	–	–	–	–
NCI-H2126	0.652	0.537	0.38	0.712	0.612	0.353	0.965	0.866	0.559	0.888	0.725	0.412	0.82	0.594	0.375	1.02	0.795	0.657
NCI-H1651	0.55	0.506	0.433	0.711	0.384	0.539	0.749	0.762	0.569	0.177	0.177	0.172	0.834	0.752	0.484	0.521	0.434	0.359
H3255	0.576	0.577	0.469	0.554	0.556	0.286	0.859	0.811	0.421	0.559	0.526	0.409	0.495	0.362	0.201	1	0.869	0.566
HOP-62	0.286	0.354	0.302	0.399	0.356	0.3	0.817	1	0.693	0.264	0.548	0.486	1.1	1.19	0.81	0.532	0.55	0.438
NCI-H441	0.294	0.283	0.237	0.683	0.451	0.238	0.462	0.32	0.367	0.55	0.321	0.37	0.547	0.527	0.552	1.02	1.02	0.717
SK-MES-1	0.994	0.744	0.376	0.901	0.875	0.53	0.954	0.656	0.611	0.674	0.52	0.26	1.21	0.836	0.464	–	–	–
EPLC-272H	0.34	0.39	0.235	0.254	0.186	0.165	1.08	0.794	0.325	0.712	0.36	0.131	1.12	0.945	0.327	0.149	0.213	0.167
NCI-H1915	0.545	0.534	0.509	0.44	0.395	0.421	0.841	0.892	0.863	0.288	0.267	0.244	0.813	0.768	0.789	0.777	0.736	0.624
NCI-H520	0.58	0.433	0.184	0.319	0.308	0.235	0.636	0.622	0.193	0.295	0.294	0.139	0.972	0.714	0.292	–	–	–
NCI-H2228	0.351	0.306	0.221	0.343	0.171	0.126	0.335	0.337	0.215	0.698	0.441	0.179	0.972	0.581	0.204	–	–	–
